# Source: patent publication US9738634B2, “Heterocyclic amide compound and herbicide” (SYNGENTA PARTICIPATIONS AG, priority 2013, dated 2017)
# What was measured:
# Assay type in all cases: in vivo
# [1] = tested on: barnyard grass; assay: Test Example 1: weedkilling efficacy, preemergent weed treatment in the submerged state; A: barnyard grass
# Procedure, shortened: (§1)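 Emulsion diluted with water to the specified per-hectare dosage is applied onto flood water (4 cm) over alluvial soil on the sowing day, with barnyard grass, bulrush and pondweed seeded and rice (2.5-leaf) transplanted; plants grow at 25–30 °C and are rated at 3 weeks.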
# [2] = tested on: bulrush; assay: Test Example 1: weedkilling efficacy, preemergent weed treatment in the submerged state; B: bulrush
# Procedure, shortened: as §1
# [3] = tested on: oval-leafed pondweed; assay: Test Example 1: weedkilling efficacy, preemergent weed treatment in the submerged state; C: oval-leafed pondweed
# Procedure, shortened: as §1
# [4] = tested on: transplanted rice; assay: Test Example 1: preemergent weed treatment in the submerged state, effect on crop; a: transplanted rice
# Procedure, shortened: as §1
# [5] = tested on: barnyard grass; assay: Test Example 2: weedkilling efficacy, growth period weed treatment in the submerged state; A: barnyard grass
# Procedure, shortened: (§2)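 First, alluvial soil in pots is flooded to 4 cm and mixed seed is sown. Next, plants grow in a greenhouse at 25 to 30° C until the 1-2 leaf stage. Then diluted emulsion is applied onto the water surface at the given g/ha rate, and injury is assessed after 3 weeks.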
# [6] = tested on: bulrush; assay: Test Example 2: weedkilling efficacy, growth period weed treatment in the submerged state; B: bulrush
# Procedure, shortened: as §2
# [7] = tested on: oval-leafed pondweed; assay: Test Example 2: weedkilling efficacy, growth period weed treatment in the submerged state; C: oval-leafed pondweed
# Procedure, shortened: as §2
# [8] = tested on: crabgrass; assay: Test Example 3: weedkilling efficacy through soil treatment; D: crabgrass; conditions: soil treatment, treatment dosage 315 g/ha
# Procedure, shortened: (§3)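 Crop and weed responses were judged three weeks after a uniform surface spray of the water-diluted emulsion at the given g/ha rate. Seeds sat beneath about 1.5 cm of sterilized diluvial soil, and boxes stood in a greenhouse at 25 to 30° C.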
# [9] = tested on: green foxtail; assay: Test Example 3: weedkilling efficacy through soil treatment; E: green foxtail; conditions: soil treatment, treatment dosage 315 g/ha
# Procedure, shortened: as §3
# [10] = tested on: barnyard grass; assay: Test Example 3: weedkilling efficacy through soil treatment; F: barnyard grass; conditions: soil treatment, treatment dosage 315 g/ha
# Procedure, shortened: as §3
# [11] = tested on: wild oat; assay: Test Example 3: weedkilling efficacy through soil treatment; G: wild oat; conditions: soil treatment, treatment dosage 315 g/ha
# Procedure, shortened: as §3
# [12] = tested on: black-grass; assay: Test Example 3: weedkilling efficacy through soil treatment; H: black-grass; conditions: soil treatment, treatment dosage 315 g/ha
# Procedure, shortened: as §3
# [13] = tested on: Italian ryegrass; assay: Test Example 3: weedkilling efficacy through soil treatment; I: Italian ryegrass; conditions: soil treatment, treatment dosage 315 g/ha
# Procedure, shortened: as §3
# [14] = tested on: common wind-grass; assay: Test Example 3: weedkilling efficacy through soil treatment; J: common wind-grass; conditions: soil treatment, treatment dosage 315 g/ha
# Procedure, shortened: as §3
# [15] = tested on: Indian mallow; assay: Test Example 3: weedkilling efficacy through soil treatment; K: Indian mallow; conditions: soil treatment, treatment dosage 315 g/ha
# Procedure, shortened: as §3
# [16] = tested on: redroot pigweed; assay: Test Example 3: weedkilling efficacy through soil treatment; L: redroot pigweed; conditions: soil treatment, treatment dosage 315 g/ha
# Procedure, shortened: as §3
# [17] = tested on: chickweed; assay: Test Example 3: weedkilling efficacy through soil treatment; N: chickweed; conditions: soil treatment, treatment dosage 315 g/ha
# Procedure, shortened: as §3
# [18] = tested on: catchweed; assay: Test Example 3: weedkilling efficacy through soil treatment; O: catchweed; conditions: soil treatment, treatment dosage 315 g/ha
# Procedure, shortened: as §3
# [19] = tested on: birds-eye speedwell; assay: Test Example 3: weedkilling efficacy through soil treatment; p: birds-eye speedwell; conditions: soil treatment, treatment dosage 315 g/ha
# Procedure, shortened: as §3
# [20] = tested on: directly sown rice; assay: Test Example 3: soil treatment, effect on crop; b: directly sown rice; conditions: soil treatment, treatment dosage 315 g/ha
# Procedure, shortened: as §3
# [21] = tested on: corn; assay: Test Example 3: soil treatment, effect on crop; c: corn; conditions: soil treatment, treatment dosage 315 g/ha
# Procedure, shortened: as §3
# [22] = tested on: soybean; assay: Test Example 3: soil treatment, effect on crop; d: soybean; conditions: soil treatment, treatment dosage 315 g/ha
# Procedure, shortened: as §3
# [23] = tested on: wheat; assay: Test Example 3: soil treatment, effect on crop; e: wheat; conditions: soil treatment, treatment dosage 315 g/ha
# Procedure, shortened: as §3
# [24] = tested on: beet; assay: Test Example 3: soil treatment, effect on crop; f: beet; conditions: soil treatment, treatment dosage 315 g/ha
# Procedure, shortened: as §3
# [25] = tested on: rapeseed; assay: Test Example 3: soil treatment, effect on crop; g: rapeseed; conditions: soil treatment, treatment dosage 315 g/ha
# Procedure, shortened: as §3
Structure (SMILES),"D: crabgrass, weedkilling efficacy grade [8]","E: green foxtail, weedkilling efficacy grade [9]","F: barnyard grass, weedkilling efficacy grade [10]","G: wild oat, weedkilling efficacy grade [11]","H: black-grass, weedkilling efficacy grade [12]","I: Italian ryegrass, weedkilling efficacy grade [13]","J: common wind-grass, weedkilling efficacy grade [14]","K: Indian mallow, weedkilling efficacy grade [15]","L: redroot pigweed, weedkilling efficacy grade [16]","N: chickweed, weedkilling efficacy grade [17]","O: catchweed, weedkilling efficacy grade [18]","P: birds-eye speedwell, weedkilling efficacy grade [19]","b: directly sown rice, effect on crop grade [20]","c: corn, effect on crop grade [21]","d: soybean, effect on crop grade [22]","e: wheat, effect on crop grade [23]","f: beet, effect on crop grade [24]","g: rapeseed, effect on crop grade [25]","A: barnyard grass, weed kill grade ([1]; treatment dosage 315 g/ha)","B: bulrush, weed kill grade ([2]; treatment dosage 315 g/ha)",further results
CC(C)(C(=O)Nc1cc(F)cc(F)n1)N1COCN(c2ccccc2)C1=O [A-2-13],"5 (weed kill ratio 90% or more, (practically complete withering))","5 (weed kill ratio 90% or more, (practically complete withering))","5 (weed kill ratio 90% or more, (practically complete withering))","5 (weed kill ratio 90% or more, (practically complete withering))","5 (weed kill ratio 90% or more, (practically complete withering))","5 (weed kill ratio 90% or more, (practically complete withering))","5 (weed kill ratio 90% or more, (practically complete withering))","5 (weed kill ratio 90% or more, (practically complete withering))","5 (weed kill ratio 90% or more, (practically complete withering))","5 (weed kill ratio 90% or more, (practically complete withering))","5 (weed kill ratio 90% or more, (practically complete withering))","5 (weed kill ratio 90% or more, (practically complete withering))","5 (weed kill ratio 90% or more, (practically complete withering))","4 (weed kill ratio 70% or more, less than 90%)","3 (weed kill ratio 40% or more, less than 70%)","5 (weed kill ratio 90% or more, (practically complete withering))","4 (weed kill ratio 70% or more, less than 90%)","5 (weed kill ratio 90% or more, (practically complete withering))",,,"A: barnyard grass, weed kill grade ([1]; treatment dosage 252 g/ha): 5 (weed kill ratio 90% or more, (practically complete withering)); B: bulrush, weed kill grade ([2]; treatment dosage 252 g/ha): 5 (weed kill ratio 90% or more, (practically complete withering)); C: oval-leafed pondweed, weed kill grade ([3]; treatment dosage 252 g/ha): 5 (weed kill ratio 90% or more, (practically complete withering)); a: transplanted rice, effect on crop grade ([4]; treatment dosage 252 g/ha): 3 (weed kill ratio 40% or more, less than 70%); A (barnyard grass) weedkilling efficacy grade ([5]; treatment dosage 252 g/ha): 5 (weed kill ratio 90% or more, (practically complete withering)); B (bulrush) weedkilling efficacy grade ([6]; treatment dosage 252 g/ha): 5 (weed kill ratio 90% or more, (practically complete withering)); C (oval-leafed pondweed) weedkilling efficacy grade ([7]; treatment dosage 252 g/ha): 5 (weed kill ratio 90% or more, (practically complete withering))"
COc1cc(Cl)nc(NC(=O)C(C)(C)N2COCN(c3ccccc3)C2=O)c1 [A-2-33],"5 (weed kill ratio 90% or more, (practically complete withering))","5 (weed kill ratio 90% or more, (practically complete withering))","4 (weed kill ratio 70% or more, less than 90%)","4 (weed kill ratio 70% or more, less than 90%)","5 (weed kill ratio 90% or more, (practically complete withering))","5 (weed kill ratio 90% or more, (practically complete withering))","5 (weed kill ratio 90% or more, (practically complete withering))",0 (weed kill ratio 5% or less (practically no effect)),"2 (weed kill ratio 20% or more, less than 40%)","4 (weed kill ratio 70% or more, less than 90%)","5 (weed kill ratio 90% or more, (practically complete withering))","5 (weed kill ratio 90% or more, (practically complete withering))","3 (weed kill ratio 40% or more, less than 70%)",0 (weed kill ratio 5% or less (practically no effect)),0 (weed kill ratio 5% or less (practically no effect)),0 (weed kill ratio 5% or less (practically no effect)),"1 (weed kill ratio 5% or more, less than 20%)","3 (weed kill ratio 40% or more, less than 70%)","5 (weed kill ratio 90% or more, (practically complete withering))","5 (weed kill ratio 90% or more, (practically complete withering))","C: oval-leafed pondweed, weed kill grade ([3]; treatment dosage 315 g/ha): 5 (weed kill ratio 90% or more, (practically complete withering)); a: transplanted rice, effect on crop grade ([4]; treatment dosage 315 g/ha): 4 (weed kill ratio 70% or more, less than 90%); A (barnyard grass) weedkilling efficacy grade ([5]; treatment dosage 315 g/ha): 5 (weed kill ratio 90% or more, (practically complete withering)); B (bulrush) weedkilling efficacy grade ([6]; treatment dosage 315 g/ha): 5 (weed kill ratio 90% or more, (practically complete withering)); C (oval-leafed pondweed) weedkilling efficacy grade ([7]; treatment dosage 315 g/ha): 5 (weed kill ratio 90% or more, (practically complete withering))"
CC(C)(C(=O)Nc1cccc(CF)n1)N1COCN(c2ccccc2)C1=O [A-2-39],"5 (weed kill ratio 90% or more, (practically complete withering))","5 (weed kill ratio 90% or more, (practically complete withering))","5 (weed kill ratio 90% or more, (practically complete withering))","4 (weed kill ratio 70% or more, less than 90%)","5 (weed kill ratio 90% or more, (practically complete withering))","5 (weed kill ratio 90% or more, (practically complete withering))","5 (weed kill ratio 90% or more, (practically complete withering))",0 (weed kill ratio 5% or less (practically no effect)),0 (weed kill ratio 5% or less (practically no effect)),"2 (weed kill ratio 20% or more, less than 40%)","5 (weed kill ratio 90% or more, (practically complete withering))","5 (weed kill ratio 90% or more, (practically complete withering))","4 (weed kill ratio 70% or more, less than 90%)",0 (weed kill ratio 5% or less (practically no effect)),0 (weed kill ratio 5% or less (practically no effect)),"1 (weed kill ratio 5% or more, less than 20%)","3 (weed kill ratio 40% or more, less than 70%)","2 (weed kill ratio 20% or more, less than 40%)","5 (weed kill ratio 90% or more, (practically complete withering))","5 (weed kill ratio 90% or more, (practically complete withering))","C: oval-leafed pondweed, weed kill grade ([3]; treatment dosage 315 g/ha): 5 (weed kill ratio 90% or more, (practically complete withering)); a: transplanted rice, effect on crop grade ([4]; treatment dosage 315 g/ha): 1 (weed kill ratio 5% or more, less than 20%); A (barnyard grass) weedkilling efficacy grade ([5]; treatment dosage 315 g/ha): 4 (weed kill ratio 70% or more, less than 90%); B (bulrush) weedkilling efficacy grade ([6]; treatment dosage 315 g/ha): 5 (weed kill ratio 90% or more, (practically complete withering)); C (oval-leafed pondweed) weedkilling efficacy grade ([7]; treatment dosage 315 g/ha): 4 (weed kill ratio 70% or more, less than 90%)"
